We go through twelve compounds from patent US11053242B2, “[9,10-dimethoxy-3-(2-methylpropyl)-1H,2H,3H,4H,6H,7H,11BH-pyrido-[2,1-a]isoquinolin-2-yl]methanol and compounds, compositions and methods relating thereto” (Neurocrine Biosciences, Inc., priority 2015, dated 2021).

The target in data set [1] is VMAT2 (rat forebrain homogenate) (Rattus norvegicus (Rat), UniProt Q01827). The settings on record: radioligand of the VMAT2 binding assay; cited from earlier work.
For data set [2], the system named is vesicular monoamine transporter-2 (VMAT2). The settings on record: inhibition of catecholamine uptake by VMAT2, Scherman et al. 1983; cited from earlier work.
Data set [3] can be described thus: Metabolic pathways in human hepatocytes (fraction metabolized). Format: in vitro ADME. The settings on record: LC-MS/MS of metabolites. The method, then:
To investigate differences in the metabolism of Compound 1-1 and R,R,R-DHTBZ in vitro both compounds were incubated with human hepatocytes and the amounts of metabolites formed via the respective demethylation, oxidation, and glucuronidation pathways were determined by LC-MS/MS. The instrument responses for all metabolites were assumed to be approximately equal. For both compounds the percentage of overall in vitro metabolism due to the respective pathways (fraction metabolized, fm) was calculated by dividing the LC/MS peak area of the metabolite(s) formed via a given pathway by the sum of the peak areas of all metabolites monitored. […] This demethylation is believed to be catalyzed by CYP2D6.

Data set [4] addresses VMAT2 (human platelet homogenate) (Homo sapiens (Human), UniProt Q05940). Kind of data set: Human VMAT2 Ki, slightly modified competition binding procedure (Table 11).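 Note: competition binding with 90 min incubation at 25 °C, after which filter-retained radioligand was measured by scintillation counting.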 Conditions: 10 nM 3H-dihydrotetrabenazine.
Data set [5] can be described thus: In vitro human intestinal S9 hydrolysis assay (formation of compound 1-1). Conditions: human intestinal S9, 1 uM, 37° C., up to 60 minutes.

VMAT2 (human platelet homogenate), sequence (Q05940 whole entry): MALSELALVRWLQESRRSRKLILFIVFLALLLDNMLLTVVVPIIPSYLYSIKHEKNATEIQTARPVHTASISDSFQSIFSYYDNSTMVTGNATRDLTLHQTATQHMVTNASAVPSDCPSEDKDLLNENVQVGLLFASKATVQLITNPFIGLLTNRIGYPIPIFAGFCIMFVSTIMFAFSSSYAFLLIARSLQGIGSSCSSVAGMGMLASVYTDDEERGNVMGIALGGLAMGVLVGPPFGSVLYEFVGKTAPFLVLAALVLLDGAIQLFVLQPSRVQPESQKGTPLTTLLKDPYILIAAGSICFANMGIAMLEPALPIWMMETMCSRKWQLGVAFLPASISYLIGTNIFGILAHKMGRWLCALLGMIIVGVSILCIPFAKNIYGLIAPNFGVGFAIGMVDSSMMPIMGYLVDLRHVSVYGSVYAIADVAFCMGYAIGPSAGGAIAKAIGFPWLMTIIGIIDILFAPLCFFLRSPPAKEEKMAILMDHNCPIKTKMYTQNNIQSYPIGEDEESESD
VMAT2 (rat forebrain homogenate), sequence (Q01827 whole entry): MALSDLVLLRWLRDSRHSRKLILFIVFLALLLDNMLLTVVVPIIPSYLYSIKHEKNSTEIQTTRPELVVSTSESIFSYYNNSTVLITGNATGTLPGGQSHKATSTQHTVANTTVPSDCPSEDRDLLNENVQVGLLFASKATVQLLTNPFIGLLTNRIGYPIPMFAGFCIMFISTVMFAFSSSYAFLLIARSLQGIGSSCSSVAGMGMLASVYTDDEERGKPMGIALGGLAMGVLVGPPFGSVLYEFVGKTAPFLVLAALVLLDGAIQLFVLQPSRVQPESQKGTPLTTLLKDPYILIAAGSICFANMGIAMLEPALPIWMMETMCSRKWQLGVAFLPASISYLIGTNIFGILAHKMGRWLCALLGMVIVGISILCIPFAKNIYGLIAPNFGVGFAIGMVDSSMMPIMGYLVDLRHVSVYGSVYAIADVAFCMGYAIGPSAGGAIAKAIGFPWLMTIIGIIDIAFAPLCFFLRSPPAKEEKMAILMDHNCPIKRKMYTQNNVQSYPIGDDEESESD

As for ^3H-dihydrotetrabenezine, the Kd in data set [1] was 0.0026 µM.
As for `COc1cc2c(cc1OC)C1CC(=O)C(CC(C)C)CN1CC2` (centres unmarked) [Tetrabenazine, tetrabenazine], the IC50 in data set [2] is […].
Consider `COc1cc2c(cc1OC)[C@H]1C[C@@H](CO)[C@H](CC(C)C)CN1CC2` [Compound 1-1, [(2R,3S,11bR)-9,10-Dimethoxy-3-(2-methylpropyl)-1H,2H,3H,4H,6H,7H,11bH-pyrido[2,1-a]isoquinolin-2-yl]methanol], for which the primary metabolic pathway result in data set [3] is “primarily metabolized by glucuronidation”.
Turning to `COc1cc2c(cc1OC)C1CC(O)C(CC(C)C)CN1CC2` [R,R,R-DHTBZ, 3-isobutyl-9,10-dimethoxy-1,3,4,6,7,11b-hexahydro-2H-pyrido[2,1-a]isoquinolin-2-ol, reference compound], the primary metabolic pathway result in data set [3] was “primarily metabolized by demethylation”.
Regarding `COc1cc2c(cc1OC)[C@H]1C[C@@H](COC(=O)N[C@@H](C)C(=O)O)[C@H](CC(C)C)CN1CC2` [Compound 5-47, (2S)-2-[({[(2R,3S,11bR)-9,10-dimethoxy-3-(2-methylpropyl)-1H,2H,3H,4H,6H,7H,11bH-pyrido[2,1-a]isoquinolin-2-yl]methoxy}carbonyl)amino]propanoic acid], the Ki in data set [4] fell in the range of 0.01 to 0.5 µM. Moreover, in data set [5], the “S9 Assay (ability to form compound 1-1)” value was “+”.
For `COc1cc2c(cc1OC)[C@H]1C[C@@H](COC(=O)N3CCC(C(=O)O)(N(C)C)CC3)[C@H](CC(C)C)CN1CC2` [Compound 5-43, 1-({[(2R,3S,11bR)-9,10-dimethoxy-3-(2-methylpropyl)-1H,2H,3H,4H,6H,7H,11bH-pyrido[2,1-a]isoquinolin-2-yl]methoxy}carbonyl)-4-(dimethylamino)piperidine-4-carboxylic acid], in that order: over 0.5 µM and “+”.
Turning to `COc1cc2c(cc1OC)[C@H]1C[C@@H](COC(=O)C3CCN(C)CC3)[C@H](CC(C)C)CN1CC2` [Compound 2-25, [(2R,3S,11bR)-9,10-dimethoxy-3-(2-methylpropyl)-1H,2H,3H,4H,6H,7H,11bH-pyrido[2,1-a]isoquinolin-2-yl]methyl 1-methylpiperidine-4-carboxylate], the Ki in data set [4] is under 0.01 µM. The “S9 Assay (ability to form compound 1-1)” value in data set [5] was “+++”.
`COc1cc2c(cc1OC)[C@H]1C[C@@H](COC(=O)N(C)CCCC(=O)O)[C@H](CC(C)C)CN1CC2` [Compound 5-25, 4-[({[(2R,3S,11bR)-9,10-dimethoxy-3-(2-methylpropyl)-1H,2H,3H,4H,6H,7H,11bH-pyrido[2,1-a]isoquinolin-2-yl]methoxy}carbonyl)(methyl)amino]butanoic acid] returned an inhibitory constant (Ki) in data set [4] of over 0.5 µM. In addition, in data set [5], the “S9 Assay (ability to form compound 1-1)” value is “+”.
`COc1cc2c(cc1OC)[C@H]1C[C@@H](COC(=O)NCC(O)C(=O)O)[C@H](CC(C)C)CN1CC2` (stereo partly drawn) [Compound 5-11, 3-[({[(2R,3S,11bR)-9,10-dimethoxy-3-(2-methylpropyl)-1H,2H,3H,4H,6H,7H,11bH-pyrido[2,1-a]isoquinolin-2-yl]methoxy}carbonyl)amino]-2-hydroxypropanoic acid] returned an inhibition constant Ki in data set [4] of 0.01 to 0.5 µM. Further, in data set [5], the “S9 Assay (ability to form compound 1-1)” value is given as “++”.
For the compound `COc1cc2c(cc1OC)[C@H]1C[C@@H](COC(=O)N3CC4CCC(C3)N4)[C@H](CC(C)C)CN1CC2` [Compound 6-4, [(2R,3S,11bR)-9,10-dimethoxy-3-(2-methylpropyl)-1H,2H,3H,4H,6H,7H,11bH-pyrido[2,1-a]isoquinolin-2-yl]methyl 3,8-diazabicyclo[3.2.1]octane-3-carboxylate], in data set [4], the Ki was under 0.01 µM. In data set [5], the “S9 Assay (ability to form compound 1-1)” value is “+”.
For `COc1cc2c(cc1OC)[C@H]1C[C@@H](COC(=O)N3CCNC[C@@H]3CO)[C@H](CC(C)C)CN1CC2` [Compound 6-7, [(2R,3S,11bR)-9,10-dimethoxy-3-(2-methylpropyl)-1H,2H,3H,4H,6H,7H,11bH-pyrido[2,1-a]isoquinolin-2-yl]methyl (2R)-2-(hydroxymethyl)piperazine-1-carboxylate], in that order: under 0.01 µM and “+”.
As for `COc1cc2c(cc1OC)[C@H]1C[C@@H](COC(=O)NC3(C(=O)O)CCCC3)[C@H](CC(C)C)CN1CC2` [Compound 5-39, 1-[({[(2R,3S,11bR)-9,10-dimethoxy-3-(2-methylpropyl)-1H,2H,3H,4H,6H,7H,11bH-pyrido[2,1-a]isoquinolin-2-yl]methoxy}carbonyl)amino]cyclopentane-1-carboxylic acid], the Ki in data set [4] was 0.01 to 0.5 µM. Besides, the “S9 Assay (ability to form compound 1-1)” value in data set [5] is given as “+++”.

Broadly, the Kd is the concentration at which binding is half-saturated. The IC50 is the concentration that gives 50% inhibition. The term Ki denotes a measure of affinity in units of concentration, obtained from inhibition or displacement. Lower therefore signals higher affinity.
